Tests used:
[1] = molecular target: T1, 5-hydroxytryptamine receptor 1A (Homo sapiens) (UniProt P08908); assay: Displacement of [3H]LSD from human 5-HT1A receptor expressed in CHO-K1 cells at 10 uM; type: cell-based
T1 sequence (whole entry): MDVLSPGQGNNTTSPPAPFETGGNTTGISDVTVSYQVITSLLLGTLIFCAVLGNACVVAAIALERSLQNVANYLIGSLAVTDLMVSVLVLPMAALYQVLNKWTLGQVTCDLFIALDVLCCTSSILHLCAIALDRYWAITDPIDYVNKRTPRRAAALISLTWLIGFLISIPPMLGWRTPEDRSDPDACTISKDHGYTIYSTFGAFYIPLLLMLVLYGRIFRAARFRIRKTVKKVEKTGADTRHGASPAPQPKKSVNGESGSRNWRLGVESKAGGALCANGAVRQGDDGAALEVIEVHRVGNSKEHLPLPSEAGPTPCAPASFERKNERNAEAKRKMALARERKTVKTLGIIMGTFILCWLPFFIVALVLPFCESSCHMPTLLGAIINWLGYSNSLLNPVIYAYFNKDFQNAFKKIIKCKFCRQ

[2] = molecular target: 5-hydroxytryptamine receptor 7 (Homo sapiens) (UniProt P34969); assay: Displacement of […] from human 5-HT7 receptor expressed in HEK293 cells at 10 uM; type: cell-based
5-hydroxytryptamine receptor 7 (Homo sapiens), sequence (P34969 whole entry): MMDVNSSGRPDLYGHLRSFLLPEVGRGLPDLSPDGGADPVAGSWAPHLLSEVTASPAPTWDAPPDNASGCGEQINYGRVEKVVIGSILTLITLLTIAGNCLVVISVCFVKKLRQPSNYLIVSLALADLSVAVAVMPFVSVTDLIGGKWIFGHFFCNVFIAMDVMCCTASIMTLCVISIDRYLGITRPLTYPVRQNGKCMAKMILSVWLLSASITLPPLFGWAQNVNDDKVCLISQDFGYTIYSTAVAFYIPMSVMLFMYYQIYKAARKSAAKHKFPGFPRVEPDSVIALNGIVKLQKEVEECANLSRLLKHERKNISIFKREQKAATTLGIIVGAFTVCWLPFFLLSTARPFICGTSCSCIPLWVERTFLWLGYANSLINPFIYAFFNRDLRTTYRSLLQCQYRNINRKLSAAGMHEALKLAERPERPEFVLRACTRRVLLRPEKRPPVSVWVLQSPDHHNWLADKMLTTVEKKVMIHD

| Structure (SMILES) | inhibition [1] | inhibition [2] |
| --- | --- | --- |
| CC(C)c1cc(CNCCN2CCN(C(=O)c3cc(Cl)cc(Cl)c3)CC2)on1 | 43.2% | -0.2% |
| CC(C)(C)CCNCCN1CCN(C(=O)c2cc(C(F)(F)F)cc(C(F)(F)F)c2)CC1 | -4.4% | -0.3% |
| O=C(c1ccc(Cl)cc1)N1CCN(CCNCCCc2nc3ccccc3[nH]2)CC1 | 47.5% | 36.8% |
| CC(C)c1cc(CNCCN2CCN(C(=O)c3ccc(Cl)c(Cl)c3)CC2)on1 | 76.4% | 16.1% |
| O=C(c1cc(Cl)cc(Cl)c1)N1CCN(CCNCCCc2nc3ccccc3[nH]2)CC1 | 90.1% | 62.7% |
| O=C(c1ccc(Cl)c(Cl)c1)N1CCN(CCNCCCc2nc3ccccc3[nH]2)CC1 | 49.5% | 56.2% |
| O=C(c1cc(C(F)(F)F)cc(C(F)(F)F)c1)N1CCN(CCNCCCc2nc3ccccc3[nH]2)CC1 | 87.7% | 45.4% |
| CC(C)(C)CCNCCN1CCN(C(=O)c2ccc(Cl)c(Cl)c2)CC1 | 65.2% | 2% |

Continued, values first:

| inhibition [1] | inhibition [2] | Structure (SMILES) |
| --- | --- | --- |
| 33.7% | -0.6% | CC(C)(C)CCNCCN1CCN(C(=O)c2cc(Cl)cc(Cl)c2)CC1 |
| 56.5% | 93.6% | CC(C)c1cc(CNCCN2CCN(C(=O)c3ccc(Cl)cc3)CC2)on1 |
| 36.7% | -0.6% | CC(C)(C)CCNCCN1CCN(C(=O)c2ccc(Cl)cc2)CC1 |
| 13% | -0.3% | CC(C)c1cc(CNCCN2CCN(C(=O)c3cc(C(F)(F)F)cc(C(F)(F)F)c3)CC2)on1 |
